Experimental findings from US9868748B2, “Thiazolopyrrolidine inhibitors of ROR- γ” (Vitae Pharmaceuticals, Inc., priority 2013, dated 2018) are described below.

Test [1] deals with recombinant RORγ Ligand Binding Domain (LBD) protein (Homo sapiens (Human), UniProt P51449). Kind of test: Radio-Ligand RORγ Binding Assay (Assay 1). The note with it: competition with 25-hydroxy [26,27-3H]-cholesterol, SPA; Table 9; read-out: RORγ Binding Ki Range*. An outline of the steps:
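Scintillation proximity competition binding of 8.6 nM stock 25-hydroxy[26,27-3H]cholesterol to 24 nM stock 6×His-GST-tagged human RORγ LBD, in 50 mM HEPES pH 7.4 with NaCl, MgCl2, glycerol, CHAPS, β-octylglucopyranoside and DTT, room temperature. Inhibition referenced to DMSO and 10 μM T0901317; IC50 by four-parameter fit, converted to Ki using radioligand concentration and KD.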

For test [2], the target named is full-length RORγt in Jurkat cells (Homo sapiens (Human), UniProt P51449). Kind of test: RORγt 5xRORE Assay in Jurkat Cells (Assay 2). The format is cell-based. Particulars: Nanoluc luciferase reporter, 16-18 hrs, Table 9, read-out: RORγt5X IC50 Range*. On the procedure:
[formula] RORγt 5xRORE Assay in Jurkat Cells (Assay 2)
Compounds of the present invention were tested for RORγ inverse agonist activity in a cell-based, transcriptional activity assay. Secreted Nanoluc® luciferase was used as a reporter for transcriptional activity of the full-length RORγt in Jurkat cells (ATCC, Cat. # TIB-152). A reporter plasmid was constructed by inserting 5 repeats of the ROR Response Element (RORE) […] (SEQ ID NO:1) into a commercially available promoterless plasmid pNL1.3[secNluc] (Promega, Cat. # N1021) using KpnI and HindIII restriction sites. The expression plasmid for RORγt was purchased (Geneocopoeia, Cat. # EX-T6988-M02). Jurkat cells (30 million cells) were transfected with 11 μg of EX-T6988-MO2 and 26 μg of the reporter plasmid in OptiMEM® media using Lipofectamine® LTX and Plus™ reagents (Life Technologies, Cat. #15338-100). After 5-6 h of incubation at 37° C./5% CO2, the cells were collected, resuspended in phenol-red free RPMI media containing 10% (v/v) delipidated FBS (Hyclone, Cat. # SH30855.03) and dispensed into 96-well clear bottom tissue culture plates (CoStar, Cat. #3603), at 80,000 cells per well. Tested compounds were added to the cells in the same media (final concentration of DMSO was 0.1% (v/v)), and the plates were incubated at 37° C./5% CO2 for 16-18 hrs. Luciferase activity in the conditioned supernatants was determined with NanoGlo® assay reagents (Promega, Cat. # N1130).

Chain of recombinant RORγ Ligand Binding Domain (LBD) protein (P51449 269-508): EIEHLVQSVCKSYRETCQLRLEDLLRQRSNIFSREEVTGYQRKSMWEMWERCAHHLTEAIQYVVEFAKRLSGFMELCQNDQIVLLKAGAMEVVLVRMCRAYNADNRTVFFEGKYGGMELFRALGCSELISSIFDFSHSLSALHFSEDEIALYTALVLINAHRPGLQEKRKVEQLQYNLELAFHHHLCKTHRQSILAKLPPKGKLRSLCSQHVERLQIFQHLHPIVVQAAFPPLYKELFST
Chain of full-length RORγt in Jurkat cells (P51449 other isoform, or with tags, fused parts or gaps): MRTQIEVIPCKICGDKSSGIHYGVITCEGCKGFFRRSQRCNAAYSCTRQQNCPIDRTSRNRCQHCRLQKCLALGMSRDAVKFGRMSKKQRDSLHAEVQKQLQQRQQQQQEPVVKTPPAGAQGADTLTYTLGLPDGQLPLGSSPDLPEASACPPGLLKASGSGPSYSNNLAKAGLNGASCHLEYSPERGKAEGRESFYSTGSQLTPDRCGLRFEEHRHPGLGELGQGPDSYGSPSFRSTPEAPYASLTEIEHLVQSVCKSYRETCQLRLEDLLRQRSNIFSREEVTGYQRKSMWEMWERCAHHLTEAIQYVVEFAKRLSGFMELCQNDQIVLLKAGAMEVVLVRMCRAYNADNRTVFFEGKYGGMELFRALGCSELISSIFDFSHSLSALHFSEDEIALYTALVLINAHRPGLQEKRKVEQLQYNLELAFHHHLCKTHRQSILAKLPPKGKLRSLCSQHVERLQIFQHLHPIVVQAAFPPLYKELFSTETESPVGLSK

Broadly, the Ki is the dissociation constant of the complex between target and ligand, obtained from inhibition or displacement. What is called IC50 is the concentration needed to halve the response being measured. Consider `CCS(=O)(=O)c1cnc(CC(=O)Nc2nc3c(s2)CN(Cc2ccc(-c4nnn(C)n4)cc2)[C@H]3C(C)C)nc1`, for which the Ki in test [1] was less than 100 nM. Further, the concentration for half-maximal inhibition (IC50) in test [2] was 100 to 1000 nM.
Take `CCS(=O)(=O)c1ccc(CC(=O)Nc2nc3c(s2)CN(Cc2ccc4c(c2)CCO4)[C@H]3C(C)C)cc1`: in test [1], the Ki is less than 100 nM. For the same molecule, the IC50 in test [2] was more than 1000 nM.
The corresponding values for `CCS(=O)(=O)c1ccc(CC(=O)Sc2nc3c(s2)CN(Cc2ccc(Cl)cc2)C3(C)C)cc1` are less than 100 nM and 100 to 1000 nM.
The like results for `CCS(=O)(=O)c1ccc(CC(=O)Nc2nc3c(s2)CN(c2nccc(C(F)(F)F)n2)C3(C)C)cc1` were, in that order, less than 100 nM and more than 1000 nM.
The corresponding values for `CC(C)[C@H]1c2nc(C(=O)NCc3ccc(S(C)(=O)=O)cc3)sc2CN1Cc1ccc(F)cc1` are less than 100 nM and more than 1000 nM.
As for `CC(C)[C@H]1c2nc(C(=O)NCc3ccc(S(C)(=O)=O)cc3)sc2CN1Cc1ccc(C#N)c(F)c1`, the Ki in test [1] is less than 100 nM. The IC50 in test [2] was 100 to 1000 nM.
On to `CC(C)[C@H]1c2nc(C(=O)NCc3ccc(S(C)(=O)=O)cc3)sc2CN1Cc1ccc(C(F)(F)F)cc1`, for which the Ki in test [1] was less than 100 nM. For the same molecule, the IC50 in test [2] was less than 100 nM.
For `CC(C)[C@H]1c2nc(C(=O)NCc3ccc(S(C)(=O)=O)cc3)sc2CN1Cc1ccc(C#N)cc1F`, the Ki in test [1] is less than 100 nM. The IC50 in test [2] was 100 to 1000 nM.
Regarding `CC1(C)c2nc(NC(=O)Cc3ccc(S(C)(=O)=O)cc3)sc2CN1c1nccc(C(F)(F)F)n1`, in test [1], the inhibition constant (Ki) lay in the range of 100 to 1000 nM. The IC50 in test [2] is more than 1000 nM.
As for `CC(C)[C@H]1c2nc(NC(=O)Cc3ccc(S(C)(=O)=O)cc3)sc2CN1Cc1cnc(C(F)(F)F)nc1`, the Ki in test [1] was less than 100 nM. For the same molecule, the IC50 in test [2] was less than 100 nM.
Take `CC(C)[C@H]1c2nc(NC(=O)Cc3ccc(S(C)(=O)=O)cc3)sc2CN1[C@H](C)c1cnc(Cl)cc1F`: in test [1], the Ki is less than 100 nM. In test [2], the IC50 is 100 to 1000 nM.
As to `CCS(=O)(=O)c1ccc(CC(=O)Nc2nc3c(s2)CN([C@H](C)Cc2ccccc2)[C@H]3C(C)C)cc1`, the Ki in test [1] is less than 100 nM. For the same molecule, the IC50 in test [2] is more than 1000 nM.
For the molecule `CC[C@H]1c2nc(NC(=O)Cc3ccc(S(=O)(=O)CC)cc3)sc2CN1[C@@H](C)c1ncc(Cl)cc1F`, the Ki in test [1] was less than 100 nM. In addition, the IC50 in test [2] lay in the range of 100 to 1000 nM.
For the molecule `CCS(=O)(=O)c1ccc(CC(=O)Nc2nc3c(s2)CN([C@@H](C)Cc2ccc(Cl)cc2)[C@H]3C(C)C)cc1`, the Ki in test [1] was less than 100 nM. Also, the IC50 in test [2] fell in the range of 100 to 1000 nM.
Consider `CC[C@H]1c2nc(NC(=O)Cc3ccc(S(=O)(=O)CC)cc3)sc2CN1[C@@H](C)Cc1ccccc1`, for which the Ki in test [1] was less than 100 nM. Moreover, the IC50 in test [2] was more than 1000 nM.
The like results for `CC[C@H]1c2nc(NC(=O)Cc3ccc(S(=O)(=O)CC)cc3)sc2CN1Cc1ncc(Cl)cn1` were, in that order, 100 to 1000 nM and less than 100 nM.
The corresponding values for `CCS(=O)(=O)c1ccc(CC(=O)Nc2nc3c(s2)CN(Cc2ccc(C(N)=O)cc2)[C@H]3C(C)C)cc1` are less than 100 nM and less than 100 nM.
The corresponding values for `CCS(=O)(=O)c1ccc(CC(=O)Nc2nc3c(s2)CN(Cc2ccc(C(=O)O)cc2)[C@H]3C(C)C)cc1` are less than 100 nM and 100 to 1000 nM.
Regarding `CC[C@H](C)C1c2nc(C(=O)NCc3ccc(S(C)(=O)=O)cc3)sc2CN1Cc1ccc(OC(F)F)cc1` (stereo partly drawn), in test [1], the Ki was less than 100 nM. For the same molecule, the IC50 in test [2] fell in the range of 100 to 1000 nM.
The like results for `CCS(=O)(=O)c1ccc(CC(=O)Nc2nc3c(s2)CN(Cc2ccn(C)c(=O)c2)[C@H]3C(C)C)cc1` were, in that order, 100 to 1000 nM and more than 1000 nM.
The like results for `CC(C)[C@H]1c2nc(NC(=O)Cc3ccc(S(C)(=O)=O)cc3)sc2CN1Cc1ccn(C)c(=O)c1` were, in that order, 100 to 1000 nM and more than 1000 nM.
Turning to `CC1(C)c2nc(NC(=O)Cc3ccc(S(C)(=O)=O)cc3)sc2CN1Cc1ccc(Cl)cc1`, in test [1], the Ki fell in the range of 100 to 1000 nM. Moreover, in test [2], the IC50 is more than 1000 nM.
The corresponding values for `CCS(=O)(=O)c1ccc(CC(=O)Nc2nc3c(s2)CN(Cc2ccc(F)cc2F)[C@H]3C(C)C)cc1` are less than 100 nM and more than 1000 nM.
With `CCS(=O)(=O)c1ccc(CC(=O)Nc2nc3c(s2)CN(c2cnc(C(F)(F)F)cn2)[C@H]3C(C)C)cc1`, the Ki in test [1] was less than 100 nM. Besides, the IC50 in test [2] is more than 1000 nM.
With `CCS(=O)(=O)c1ccc(CC(=O)Nc2nc3c(s2)CN(c2ncc(Cl)c(C)n2)[C@H]3C(C)C)cc1`, the Ki in test [1] was less than 100 nM. Further, the IC50 in test [2] is more than 1000 nM.
The corresponding values for `CC[C@H]1c2nc(NC(=O)Cc3ccc(F)cc3)sc2CN1Cc1ccc(Cl)cc1` are less than 100 nM and 100 to 1000 nM.
Turning to `CC(C)[C@H]1c2nc(NC(=O)Cc3ccc(S(C)(=O)=O)cc3)sc2CN1Cc1ccc(F)cc1`, in test [1], the Ki is less than 100 nM. The IC50 in test [2] was more than 1000 nM.
The like results for `CCS(=O)(=O)c1ccc(CC(=O)Nc2nc3c(s2)CN(Cc2ccc(F)c(F)c2)[C@H]3C(C)C)cc1` were, in that order, less than 100 nM and more than 1000 nM.
The like results for `CCS(=O)(=O)c1ccc(CC(=O)Nc2nc3c(s2)CN(Cc2ccc(Br)cc2)[C@H]3C(C)C)cc1` were, in that order, less than 100 nM and less than 100 nM.
The corresponding values for `CC(C)[C@H]1c2nc(C(=O)NCc3ccc(S(C)(=O)=O)cc3)sc2CN1Cc1ccc(C#N)cc1` are less than 100 nM and 100 to 1000 nM.
Regarding `CCS(=O)(=O)c1ccc(CC(=O)Nc2nc3c(s2)CN(Cc2ccc(C#N)cc2)[C@@H]3C(C)(C)C)cc1`, in test [1], the Ki is less than 100 nM. Also, in test [2], the IC50 was in the range of 100 to 1000 nM.
Consider `CCOc1ccc(CN2Cc3sc(NC(=O)Cc4ccc(S(=O)(=O)CC)cc4)nc3[C@H]2CC)cc1`, for which the Ki in test [1] is less than 100 nM. Besides, in test [2], the IC50 was 100 to 1000 nM.
The corresponding values for `CCS(=O)(=O)c1ccc(CC(=O)Nc2nc3c(s2)CN([C@H](C)Cc2ccccc2C(F)(F)F)[C@@H]3C(C)C)cc1` are less than 100 nM and more than 1000 nM.
With `CC[C@@H]1c2nc(NC(=O)Cc3ccc(S(=O)(=O)CC)cc3)sc2CN1Cc1ccc2c(c1)OCO2`, the Ki in test [1] was less than 100 nM. Besides, the IC50 in test [2] is more than 1000 nM.
In the case of `CCS(=O)(=O)c1ccc(CC(=O)Nc2nc3c(s2)CN(Cc2ccc(C(F)(F)F)c(F)c2)[C@@H]3C(C)C)cc1`, the Ki in test [1] is less than 100 nM. Further, the IC50 in test [2] fell in the range of 100 to 1000 nM.
Turning to `CC[C@@H]1c2nc(NC(=O)Cc3ccc(S(=O)(=O)CC)cc3)sc2CN1Cc1ccc(OC(C)C)cc1`, the Ki in test [1] was less than 100 nM. In test [2], the IC50 was more than 1000 nM.
The corresponding values for `CCc1ccc(CN2Cc3sc(NC(=O)Cc4ccc(S(C)(=O)=O)cc4)nc3[C@H]2C(C)C)cc1` are less than 100 nM and more than 1000 nM.
For `CCS(=O)(=O)c1ccc(CC(=O)Nc2nc3c(s2)CN([C@@H](C)Cc2ccccc2C(F)(F)F)[C@@H]3C(C)C)cc1`, in test [1], the Ki is less than 100 nM. In addition, the IC50 in test [2] is more than 1000 nM.
The like results for `CCS(=O)(=O)c1ccc(CC(=O)Nc2nc3c(s2)CN([C@H](C)Cc2ccccc2)[C@@H]3C(C)C)cc1` were, in that order, less than 100 nM and more than 1000 nM.
The like results for `CCS(=O)(=O)c1ccc(CC(=O)Nc2nc3c(s2)CN([C@H](C)Cc2ccc(F)cc2)[C@@H]3C(C)C)cc1` were, in that order, less than 100 nM and more than 1000 nM.
`CC[C@@H]1c2nc(NC(=O)Cc3ccc(S(=O)(=O)CC)cc3)sc2CN1Cc1ccc(Cl)cc1`: the Ki in test [1] was less than 100 nM. For the same molecule, the IC50 in test [2] is more than 1000 nM.
The like results for `CCS(=O)(=O)c1ccc(CC(=O)Nc2nc3c(s2)CN(Cc2ccc(OC(F)F)cc2)[C@@H]3C(C)C)cc1` were, in that order, less than 100 nM and more than 1000 nM.
Turning to `CC[C@@H](C)[C@@H]1c2nc(NC(=O)Cc3ccc(S(C)(=O)=O)cc3)sc2CN1Cc1ccc(OC(F)(F)F)cc1`, the Ki in test [1] fell in the range of 100 to 1000 nM. Also, the IC50 in test [2] fell in the range of 100 to 1000 nM.
For the molecule `CC(C)[C@@H]1c2nc(NC(=O)Cc3ccc(S(C)(=O)=O)cc3)sc2CN1Cc1ccc(C(F)(F)F)cc1F`, the Ki in test [1] was in the range of 100 to 1000 nM. The IC50 in test [2] lay within 100 to 1000 nM.
For `CC(C)[C@@H]1c2nc(NC(=O)Cc3ccc(S(C)(=O)=O)cc3)sc2CN1Cc1ccc(OC(F)(F)F)cc1`, the Ki in test [1] is 100 to 1000 nM. Besides, the IC50 in test [2] was more than 1000 nM.
The like results for `CC(C)c1ccc(CN2Cc3sc(NC(=O)Cc4ccc(S(C)(=O)=O)cc4)nc3[C@H]2C(C)C)cc1` were, in that order, less than 100 nM and more than 1000 nM.
`CCS(=O)(=O)c1ccc(CC(=O)Nc2nc3c(s2)CN(Cc2cccc(C4CC4)c2)[C@@H]3C(C)C)cc1`: the Ki in test [1] was less than 100 nM. Moreover, the IC50 in test [2] was more than 1000 nM.
The like results for `CCS(=O)(=O)c1ccc(CC(=O)Nc2nc3c(s2)CN(Cc2ccnc(C(F)(F)F)c2)[C@@H]3C(C)C)cc1` were, in that order, 100 to 1000 nM and more than 1000 nM.
